Tests used:
[1] = target: T1, Carbonic anhydrase, alpha family (Thiomicrospira crunogena, UniProt Q31FD6); experiment: Inhibition of Thiomicrospira crunogena XCL-2 alpha-carbonic anhydrase expressed in Escherichia coli BL21 (DE3) cells by [18O]-exchange mass spectroscopy
T1 sequence (Q31FD6 whole entry): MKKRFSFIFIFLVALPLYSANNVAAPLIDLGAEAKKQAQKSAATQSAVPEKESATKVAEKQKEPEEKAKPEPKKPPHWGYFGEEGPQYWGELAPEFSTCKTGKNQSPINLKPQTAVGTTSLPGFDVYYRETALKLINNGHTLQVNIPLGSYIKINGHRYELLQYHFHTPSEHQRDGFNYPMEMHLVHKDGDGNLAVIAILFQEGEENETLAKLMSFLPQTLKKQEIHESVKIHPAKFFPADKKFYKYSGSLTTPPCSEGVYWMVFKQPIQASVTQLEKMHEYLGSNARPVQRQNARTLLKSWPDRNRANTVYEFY

[2] = Inhibition of Sulfurihydrogenibium yellowstonense YO3AOP1 alpha-carbonic anhydrase by [18O]-exchange mass spectroscopy
[3] = Inhibition of Vibrio cholerae alpha-carbonic anhydrase by [18O]-exchange mass spectroscopy
[4] = Inhibition of Sulfurihydrogenibium azorense alpha-carbonic anhydrase by [18O]-exchange mass spectroscopy

SMILES | Ki [1] | Ki [2] | Ki [3] | Ki [4]
Br [BROMIDE] | 242000 µM | 49000 µM | 28000 µM | 940 µM
Cl [HYDROCHLORIC ACID] | 361000 µM | 8300 µM | 930 µM | 850 µM
S [HYDROGEN SULFIDE] | 1.1 µM | 580 µM | 74 µM | 380 µM
I [IODIDE] | 53000 µM | 860 µM | 9730 µM | 870 µM

Reference: ChEMBL document CHEMBL3621050, “Activity and anion inhibition studies of the α-carbonic anhydrase from Thiomicrospira crunogena XCL-2 Gammaproteobacterium” (Bioorg Med Chem Lett, 2015)
